Reference: patent US20250324971A1, “HERBICIDAL DERIVATIVES” (SYNGENTA CROP PROTECTION AG, priority 2022, published 2025)

Key:
Format in all cases: in vivo
[1] = system: Echinochloa crus-galli (ECHCG); test: Pre-Emergence Test (herbicidal, glasshouse pots); conditions: rate 1000 g/ha, evaluated after 13 days, five-point scale
[2] = system: Amaranthus palmeri (AMAPA); test: Pre-Emergence Test (herbicidal, glasshouse pots); conditions: rate 1000 g/ha, evaluated after 13 days, five-point scale
Zea mays (ZEAMX) [3] = test: Pre-Emergence Test (herbicidal, glasshouse pots); conditions: rate 1000 g/ha, evaluated after 13 days, five-point scale
[4] = system: Amaranthus retoflexus (AMARE); test: Pre-Emergence Test (herbicidal, glasshouse pots); conditions: rate 1000 g/ha, evaluated after 13 days, five-point scale
[5] = system: Ipomoea hederacea (IPOHE); test: Pre-Emergence Test (herbicidal, glasshouse pots); conditions: rate 1000 g/ha, evaluated after 13 days, five-point scale
Zea mays (ZEAMX) [6] = test: Post-Emergence Test (herbicidal, glasshouse pots); conditions: evaluated after 13 days
Description: (§1) Seeds of a variety of test species are sown in standard soil in pots (Setaria faberi (SETFA), Ipomoea hederacea (IPOHE), Echinochloa crus-galli (ECHCG), (Amaranthus retoflexus (AMARE), Zea mays (ZEAMX), and Amaranthus palmeri (AMAPA)). After 8 days cultivation under controlled conditions in a glasshouse (at 24° C./16° C., day/night; 14 hours light; 65% humidity), the plants arm sprayed with an aqueous spray solution derived from the formulation of the technical active ingredient in acetone/water (50:50) solution containing 0.5% Tween 20 (polyoxyethylene sorbitan monolaurate, CAS RN 9005-84-5). Rate of application is shown in g/ha in the tables below. The test plants are then grown in a glasshouse under controlled conditions in a glasshouse (at 24° C./16° C., day/night; 14 hours light; 65% humidity) and watered twice daily. After 13 days the test is evaluated for the percentage damage caused to the plant. The biological activities are shown in the following table on a five-point scale (5=81-100%; 4=61-80%; 3=41-60%; 2=21-40%; 1=0-20%; -=not tested).

[7] = system: Amaranthus retoflexus (AMARE); test: Post-Emergence Test (herbicidal, glasshouse pots); conditions: evaluated after 13 days
Description: as §1

[8] = system: Echinochloa crus-galli (ECHCG); test: Post-Emergence Test (herbicidal, glasshouse pots); conditions: evaluated after 13 days
Description: as §1

[9] = system: Amaranthus palmeri (AMAPA); test: Post-Emergence Test (herbicidal, glasshouse pots); conditions: evaluated after 13 days
Description: as §1

[10] = system: Ipomoea hederacea (IPOHE); test: Post-Emergence Test (herbicidal, glasshouse pots); conditions: evaluated after 13 days
Description: as §1

SMILES	percentage damage caused to the plant, ECHCG [1]	percentage damage caused to the plant, AMAPA [2]	percentage damage caused to the plant, ZEAMX (Zea mays (ZEAMX) [3])	percentage damage caused to the plant, AMARE [4]	percentage damage caused to the plant, IPHOE [5]	Post-Emergence Test ZEAMX percentage damage (five-point scale) (Zea mays (ZEAMX) [6]; rate 1000 g/ha)	Post-Emergence Test AMARE percentage damage (five-point scale) ([7]; rate 1000 g/ha)	Post-Emergence Test ECHCG percentage damage (five-point scale) ([8]; rate 1000 g/ha)	Post-Emergence Test AMAPA percentage damage (five-point scale) ([9]; rate 1000 g/ha)	Post-Emergence Test IPHOE percentage damage (five-point scale) ([10]; rate 1000 g/ha)	Post-Emergence Test ZEAMX percentage damage (five-point scale) (Zea mays (ZEAMX) [6]; rate 250 g/ha)	Post-Emergence Test AMARE percentage damage (five-point scale) ([7]; rate 250 g/ha)	Post-Emergence Test ECHCG percentage damage (five-point scale) ([8]; rate 250 g/ha)	Post-Emergence Test AMAPA percentage damage (five-point scale) ([9]; rate 250 g/ha)	Post-Emergence Test IPHOE percentage damage (five-point scale) ([10]; rate 250 g/ha)
CCn1c(Oc2cc(F)cc(F)c2)cc(=O)c(C(=O)O)c1-c1ccc(Cl)c(Cl)c1 [Compound 15, 2-(3,4-dichlorophenyl)-6-(3,5-difluorophenoxy)-1-ethyl-4-oxo-pyridine-3-carboxylic acid]	4 (4=61-80%)	1 (1=0-20%)	1 (1=0-20%)	1 (1=0-20%)	3 (3=41-60%)	3 (3=41-60%)	4 (4=61-80%)	3 (3=41-60%)	3 (3=41-60%)	3 (3=41-60%)					
CCn1c(Nc2ccc(C)c(C(F)(F)F)c2)cc(=O)c(C(=O)O)c1-c1ccc(Cl)c(Cl)c1 [Compound 23, 2-(3,4-dichlorophenyl)-1-ethyl-6-[4-methyl-3-(trifluoromethyl)anilino]-4-oxo-pyridine-3-carboxylic acid]	1 (1=0-20%)	0	0	1 (1=0-20%)	0	0	1 (1=0-20%)	0	0	0					
CCn1c(Nc2cccc(Cl)n2)cc(=O)c(C(=O)O)c1-c1ccc(Cl)c(Cl)c1 [Compound 30, 6-[(6-chloro-2-pyridyl)amino]-2-(3,4-dichlorophenyl)-1-ethyl-4-oxo-pyridine-3-carboxylic acid]						1 (1=0-20%)	2 (2=21-40%)	0	2 (2=21-40%)	2 (2=21-40%)					
CCn1c(Oc2cc(Cl)cc(OC)c2)cc(=O)c(C(=O)O)c1-c1ccc(Cl)c(Cl)c1 [Compound 25, 6-(3-chloro-5-methoxy-phenoxy)-2-(3,4-dichlorophenyl)-1-ethyl-4-oxo-pyridine-3-carboxylic acid]						0	1 (1=0-20%)	0	1 (1=0-20%)	1 (1=0-20%)					
CCn1c(Oc2ccc(Cl)cc2Cl)cc(=O)c(C(=O)O)c1-c1ccc(Cl)c(Cl)c1 [Compound 24, 6-(2,4-dichlorophenoxy)-2-(3,4-dichlorophenyl)-1-ethyl-4-oxo-pyridine-3-carboxylic acid]						1 (1=0-20%)	1 (1=0-20%)	0	1 (1=0-20%)	1 (1=0-20%)					
CCn1c(Nc2ccccc2F)cc(=O)c(C(=O)O)c1-c1ccc(Cl)c(Cl)c1 [Compound 1, 2-(3,4-dichlorophenyl)-1-ethyl-6-(2-fluoroanilino)-4-oxo-pyridine-3-carboxylic acid]											0	1 (1=0-20%)	0	1 (1=0-20%)	2 (2=21-40%)
CCn1c(Nc2ccc(Cl)cc2F)cc(=O)c(C(=O)O)c1-c1ccc(Cl)c(Cl)c1 [Compound 29, 6-(4-chloro-2-fluoro-anilino)-2-(3,4-dichlorophenyl)-1-ethyl-4-oxo-pyridine-3-carboxylic acid]						0	2 (2=21-40%)	0	2 (2=21-40%)	3 (3=41-60%)					
